Tests used:
[1] = tested on: retinal ganglion cells; test: Inhibitory effect against retinal ganglion cell death caused by glutamate; assay type: cell-based, Wister rat; details: 10^-7 M, 10^-6 M, 10^-5 M MCI-154; 250 μM glutamate, 48 hours culture; versus control group
Procedure: In accordance with the method of Otori et al. (Investigative Ophthalmology & Visual Science, Vol. 39, No. 6, 1998), retinal ganglion cells were isolated from a 6 day-old Wister rat, and approximately 300 cells were plated on each cover glass having a diameter of 12 mm with poly-L-lysine and laminin coatings, that was inserted in each well of a 24-well culture plate, and then were cultured for 24 hours. The cells were divided into an untreated group, a control group, and medicament-treated group, each consisting of 2 wells. To the untreated and control groups, a basic culture medium was added, and to the medicament-treated groups, MCI-154 was added at various concentrations. After 4 hours of culture, 250 μM of glutamate was added to all of the groups except for the untreated group, followed by further culture for 48 hours. After the culture for 48 hours, cells were stained with 1 μM calcein acetoxymethyl ester, and the number of cells with neurites growing more than twice as long as the cell body diameter was counted as viable cells under a fluorescence microscope. Independent three experiments were performed in duplicate.
Medicament-treated group: 10^−7 M, 10^−6 M, and 10^−5 M MCI-154
Basic culture medium: Neurobasal (Gibco, Grand Island, N.Y.) including 1 mM glutamine, 10 μg/ml gentamycin, and 40 ng/ml […], CNTF, and b-FGF. […]

[2] = tested on: retinal degeneration caused by transient retinal ischemia; test: Inhibitory effect against retinal degeneration induced by transient retinal ischemia; assay type: in vivo, Wister male rats; details: 0.1 mg/kg into caudal vein just before and immediately after ocular hypertension treatment (130 mmHg, 50 minutes); 7 days after; versus control group
Procedure: Wister male rats (body weight of about 200 g) was used. Each animal was subjected to sufficient warming treatment by using a thermal plate under anesthesia, and the head was fixed by using a stereotaxic apparatus. In order to induce transient retinal ischemia, IOP was maintained at 130 mmHg for 50 minutes by injecting intraocular irrigating solution into the anterior chamber via the cornea using an infusion tube and 30 G injection needle which were connected to a bottle held at 174 cm above the eyes (ocular hypertension treatment) according to the method of Akaike (Folia Pharmacologica Japonica, 111, pp.97-104(1998)). The ocular hypertension treatment was performed only on the right eye, and the left eye was left untreated. Just before and immediately after the ocular hypertension treatment, a physiological saline or a dose of 0.1 mg/kg of MCI0154 was injected to the caudal vein. Seven days after the ocular hypertension treatment, the animal was sacrificed under anesthesia, and eyeballs were isolated and a light microscopic specimens of horizontal sections of retina were prepared. Under a microscope, thickness of the retina (from inner plexiform layer to outer plexiform layer) was measured using a micrometer. […] 7 days after the ocular hypertension treatment. Data represent means±SEM (standard errors), and the number of rats for each group was 10. […]

[3] = tested on: left atrium of guinea pig; test: Isolated left atrium of guinea pig; details: Dose 3 × 10^-5 g/ml
Procedure: A left atrium was isolated from a male guinea pig with 200-300 g of body weight soon after striking on the back of its head. The mitral orifice was fixed to the bottom of an organ bath filled with 30 ml of Krebs-Henseleit solution maintained at 35° C. A gas mixture comprising 95% O2 and 5% CO2 was passed through the Krebs-Henseleit solution in the organ bath. Isometric tension was measured by connecting a left auricle of heart and a transducer by a yarn. A resting tension of 0.5 g was given to the atrium, which was then electrically driven with square pulses with duration of 1 msec and voltage of 1.5 times as much as threshold in the rate 2 Hz via dipolar platinum electrodes. After stabilizing the atrium for 30 minutes from its preparation, the compound dissolved in a solvent was added to the organ bath to measure its effect.

O=C1CCC(c2ccc(Nc3ccncc3)cc2)=NN1 [MCI-154, 6-[4-(4-pyridylamino)phenyl]-4,5-dihydro-3 (2H)pyridazinone]
inhibition of retinal ganglion cell death induced by glutamate (viable cells relative to untreated group) [1]: significantly inhibits
inhibition of retinal degeneration caused by transient retinal ischemia (retinal thickness ratio) [2]: significantly inhibits
Contraction of left atrium of guinea pig, Increase (%) [3]: 188%

Source: US20040063710A1, “Ophthalmological preparations” (priority 2000, published 2004)
